Here are results for 16 compounds from patent US12351581B2, “Compounds for FGFR inhibition” (Cogent Biosciences, Inc., priority 2023, dated 2025).

Where two headings read alike, the source gives them in different places.

One experiment concerns the target T1, FGFR2 (Homo sapiens, UniProt P21802).
T1 construct: biochemical assays using purified intracellular domains of the respective isoforms; purchased Carna Bioscience 08-134
As to the kind of experiment: FGFR wild type enzyme assay (HTRF KinEASE-TK). The format is biochemical. To be noted: ATP 2 uM. In outline:
(§1)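 Purified intracellular kinase domains, enzyme pre-incubated 30 min with compound (11-point 1:3 dilutions, typically 10,000-0.17 nM), then ATP plus 0.5 uM TK-peptide, 60 min at room temperature in HEPES pH7.5 with Mg2+/Mn2+. HTRF 665/615 ratio converted to percent of control; IC50 from four-parameter logistic fit.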
(In general: In TR-FRET formats the signal depends on donor and acceptor labels being close together.)

The next experiment addresses T2, FGFR2 V564F (Homo sapiens, UniProt P21802, V564F).
T2 construct: biochemical assays using purified intracellular domains of the respective isoforms; purchased SignalChem Biotech F05-12FG
Kind of experiment: FGFR mutant enzyme assay (HTRF KinEASE-TK). The format is biochemical. To be noted: ATP 1.5 uM. In short, it runs like this: as §1

The next experiment concerns the target T3, FGFR2 V564I (Homo sapiens, UniProt P21802, V564I).
T3 construct: biochemical assays using purified intracellular domains of the respective isoforms; purchased Carna Bioscience 08-546
As to the kind of experiment: FGFR mutant enzyme assay (HTRF KinEASE-TK). The format is biochemical. To be noted: ATP 0.4 uM. In short, it runs like this:
as §1

In the next experiment the target is T4, FGFR2 N549H (Homo sapiens, UniProt P21802, N549H).
T4 construct: biochemical assays using purified intracellular domains of the respective isoforms; purchased Carna Bioscience 08-532
T4 sequence (P21802 399-821 N549H limits assumed): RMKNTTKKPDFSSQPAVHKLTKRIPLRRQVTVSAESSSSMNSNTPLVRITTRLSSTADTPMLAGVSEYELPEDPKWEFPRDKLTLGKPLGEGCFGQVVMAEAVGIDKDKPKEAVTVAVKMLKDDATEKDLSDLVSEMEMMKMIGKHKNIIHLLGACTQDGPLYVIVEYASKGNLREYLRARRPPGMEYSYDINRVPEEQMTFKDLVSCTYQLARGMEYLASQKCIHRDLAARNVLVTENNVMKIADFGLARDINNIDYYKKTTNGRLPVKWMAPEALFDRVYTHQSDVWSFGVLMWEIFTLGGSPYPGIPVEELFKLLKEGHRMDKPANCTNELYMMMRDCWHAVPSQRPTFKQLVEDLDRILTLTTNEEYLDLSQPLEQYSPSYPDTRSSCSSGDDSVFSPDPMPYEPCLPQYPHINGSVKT
Kind of experiment: FGFR mutant enzyme assay (HTRF KinEASE-TK). The format is biochemical. To be noted: ATP 0.9 uM. In short, it runs like this: as §1

The next experiment has as its target FGFR2-WT (Homo sapiens, UniProt P21802). Kind of experiment: Phosphorylated FGFR2-WT (pFGFR2-WT) cell assay, KATOIII cells. The class given is cell-based. To be noted: 1 hour incubation, phospho FGFR2 HTRF. In short, it runs like this: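 KATOIII cells treated 1 h at 37 °C with threefold compound dilutions (10 μM to 0.5 nM). Lysate phospho-FGFR2 (Tyr653/654) read by HTRF.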

Setting [1] is: compound table after the examples, read-out: Enz FGFR2.

T1 sequence (P21802 399-821 limits assumed): as the sequence (P21802 399-821 N549H limits assumed) above, with H151N counted along it
FGFR2-WT, sequence (P21802 430-767 limits assumed): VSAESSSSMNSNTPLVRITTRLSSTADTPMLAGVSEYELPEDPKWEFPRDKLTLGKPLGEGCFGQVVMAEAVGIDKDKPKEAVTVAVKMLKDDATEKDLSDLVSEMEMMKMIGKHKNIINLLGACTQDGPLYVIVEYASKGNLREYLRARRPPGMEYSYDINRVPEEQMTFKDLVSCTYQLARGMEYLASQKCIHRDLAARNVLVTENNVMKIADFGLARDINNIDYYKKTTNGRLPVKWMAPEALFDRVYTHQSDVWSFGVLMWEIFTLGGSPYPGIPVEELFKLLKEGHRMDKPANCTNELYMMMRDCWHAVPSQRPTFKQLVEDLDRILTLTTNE
T2 sequence (P21802 399-821 V564F limits assumed): as the sequence (P21802 399-821 N549H limits assumed) above, with H151N, V166F counted along it
T3 sequence (P21802 399-821 V564I limits assumed): as the sequence (P21802 399-821 N549H limits assumed) above, with H151N, V166I counted along it

Consider `Cc1c(-c2cc(O[C@@H](C)c3ccc(F)cn3)c3c(C#N)cnn3c2)cnn1[C@H]1CC[C@@H](O)CC1` [Compound 50, 4-((S)-1-(5-fluoropyridin-2-yl)ethoxy)-6-(1-((1s,4R)-4-hydroxycyclohexyl)-5-methyl-1H-pyrazol-4-yl)pyrazolo[1,5-a]pyridine-3-carbonitrile], for which the IC50 on FGFR2 (Table 3, read-out: FGFR2 Enz) stood at 5.5 nM; at FGFR2 (setting [1]), 5.5 nM; at FGFR2 V564F it was 11 nM; against FGFR2 V564I, 20 nM; at FGFR2 N549H, 6 nM; at FGFR2-WT, 57 nM.

On to `Cc1c(-c2cc(OC(C)c3ccc(F)cn3)c3c(C#N)cnn3c2)cnn1[C@H]1CC[C@H](O)CC1` (some centres unmarked) [Compound 51, 4-(1-(5-fluoropyridin-2-yl)ethoxy)-6-(1-((1r,4r)-4-hydroxycyclohexyl)-5-methyl-1H-pyrazol-4-yl)pyrazolo[1,5-a]pyridine-3-carbonitrile], for which the IC50 on FGFR2 (Table 3, read-out: FGFR2 Enz) turned out to be 1 nM; on FGFR2 (setting [1]), 1 nM; against FGFR2 V564F, 2 nM; against FGFR2 V564I, 4 nM; against FGFR2 N549H, 1 nM; against FGFR2-WT, 6.5 nM.

For the compound `Cc1c(-c2cc(OC(C)c3ccc(F)cn3)c3c(C#N)cnn3c2)cnn1[C@H]1CC[C@@H](O)CC1` (some centres unmarked) [Compound 52, 4-(1-(5-fluoropyridin-2-yl)ethoxy)-6-(1-((1s,4s)-4-hydroxycyclohexyl)-5-methyl-1H-pyrazol-4-yl)pyrazolo[1,5-a]pyridine-3-carbonitrile], the IC50 at FGFR2 (Table 3, read-out: FGFR2 Enz) was determined as 0.7 nM; on FGFR2 (setting [1]), 0.7 nM; on FGFR2 V564F it was 2.4 nM; against FGFR2 V564I it was 3 nM; at FGFR2 N549H, 1 nM; against FGFR2-WT, 6 nM.

With `Cc1c(-c2cc(O[C@H](C)c3ccc(F)cn3)c3c(C#N)cnn3c2)cnn1[C@H]1CC[C@H](OC(=O)[C@@H](N)C(C)C)CC1` [Compound 53, (1R,4S)-4-(4-(3-cyano-4-((R)-1-(5-fluoropyridin-2-yl)ethoxy)pyrazolo[1,5-a]pyridin-6-yl)-5-methyl-1H-pyrazol-1-yl)cyclohexyl L-valinate], the IC50 turned out to be 0.3 nM at FGFR2 (Table 3, read-out: FGFR2 Enz); 0.3 nM on FGFR2 (setting [1]); 1 nM at FGFR2 V564F; 1.5 nM against FGFR2 V564I; 0.5 nM against FGFR2 N549H; 3 nM at FGFR2-WT.

For the compound `Cc1c(-c2cc(O[C@H](C)c3cccnc3)c3c(C#N)cnn3c2)cnn1[C@H]1CC[C@H](O)CC1` [Compound 54, 6-(1-((1r,4R)-4-hydroxycyclohexyl)-5-methyl-1H-pyrazol-4-yl)-4-((R)-1-(pyridin-3-yl)ethoxy)pyrazolo[1,5-a]pyridine-3-carbonitrile], the IC50 at FGFR2 (Table 3, read-out: FGFR2 Enz) was found to be 0.4 nM; at FGFR2 (setting [1]) it was 0.4 nM; against FGFR2 V564F, 1 nM; at FGFR2 V564I, 1 nM; at FGFR2 N549H, 0.5 nM; against FGFR2-WT it was 12 nM.

On to `C[C@@H](Oc1cc(-c2cnn([C@H]3CC[C@H](O)CC3)c2)cn2ncc(C#N)c12)c1ccc(F)cn1` [Compound 55, 4-((R)-1-(5-fluoropyridin-2-yl)ethoxy)-6-(1-((1r,4R)-4-hydroxycyclohexyl)-1H-pyrazol-4-yl)pyrazolo[1,5-a]pyridine-3-carbonitrile], for which the IC50 on FGFR2 (Table 3, read-out: FGFR2 Enz) amounted to 0.2 nM; on FGFR2 (setting [1]) it was 0.2 nM; against FGFR2 V564F, 0.3 nM; on FGFR2 V564I it was 0.6 nM; on FGFR2 N549H, 0.13 nM; against FGFR2-WT, 1.6 nM.

Consider `C[C@@H](Oc1cc(-c2ccc(N3CCC(O)CC3)nc2)cn2ncc(C#N)c12)c1ccc(F)cn1` [Compound 56, (R)-4-(1-(5-fluoropyridin-2-yl)ethoxy)-6-(6-(4-hydroxypiperidin-1-yl)pyridin-3-yl)pyrazolo[1,5-a]pyridine-3-carbonitrile], for which the IC50 at FGFR2 (Table 3, read-out: FGFR2 Enz) was determined as 0.2 nM; on FGFR2 (setting [1]), 0.2 nM; on FGFR2 V564F it was 0.6 nM; against FGFR2 V564I, 1 nM; at FGFR2 N549H it was 0.2 nM; against FGFR2-WT, 3.4 nM.

On to `CN=S1(=O)CCC(n2cc(-c3cc(O[C@H](C)c4ccc(F)cn4)c4c(C#N)cnn4c3)cn2)CC1` (stereo partly drawn) [Compound 58, (R)-4-(1-(5-fluoropyridin-2-yl)ethoxy)-6-(1-(1-(methylimino)-1-oxidohexahydro-116-thiopyran-4-yl)-1H-pyrazol-4-yl)pyrazolo[1,5-a]pyridine-3-carbonitrile], for which the IC50 on FGFR2 (Table 3, read-out: FGFR2 Enz) is 0.15 nM; at FGFR2 (setting [1]), 0.15 nM; against FGFR2 V564F, 0.45 nM; against FGFR2 V564I it was 1 nM; at FGFR2 N549H it was 0.15 nM; against FGFR2-WT, 1.6 nM.

As for `Cc1c(-c2cc(O[C@H](C)c3ccc(F)cn3)c3c(C#N)cnn3c2)nnn1[C@H]1CC[C@H](O)CC1` [Compound 59, 4-((R)-1-(5-fluoropyridin-2-yl)ethoxy)-6-(1-((1r,4R)-4-hydroxycyclohexyl)-5-methyl-1H-1,2,3-triazol-4-yl)pyrazolo[1,5-a]pyridine-3-carbonitrile], the IC50 was 0.5 nM on FGFR2 (Table 3, read-out: FGFR2 Enz); 0.5 nM at FGFR2 (setting [1]); 3 nM on FGFR2 V564F; 3 nM against FGFR2 V564I; 1 nM against FGFR2 N549H; 5.7 nM against FGFR2-WT.

On to `CC[C@@H](Oc1cc(-c2cnn([C@H]3CC[C@H](O)CC3)c2C)cn2ncc(C#N)c12)c1ccc(F)cn1` [Compound 60, 4-((R)-1-(5-fluoropyridin-2-yl)propoxy)-6-(1-((1r,4R)-4-hydroxycyclohexyl)-5-methyl-1H-pyrazol-4-yl)pyrazolo[1,5-a]pyridine-3-carbonitrile], for which the IC50 at FGFR2 (Table 3, read-out: FGFR2 Enz) is 0.4 nM; at FGFR2 (setting [1]) it was 0.4 nM; at FGFR2 V564F, 1.5 nM; on FGFR2 V564I it was 2 nM; against FGFR2 N549H, 0.5 nM; at FGFR2-WT it was 3.5 nM.

Regarding `Cc1c(-c2cc(O[C@H](C)c3ccc(F)cn3)c3c(C#N)cnn3c2)cnn1[C@H]1CCCC[C@@H]1O` [Compound 61, 4-((R)-1-(5-fluoropyridin-2-yl)ethoxy)-6-(1-((1S,2S)-2-hydroxycyclohexyl)-5-methyl-1H-pyrazol-4-yl)pyrazolo[1,5-a]pyridine-3-carbonitrile], the IC50 on FGFR2 (Table 3, read-out: FGFR2 Enz) is 0.3 nM; at FGFR2 (setting [1]), 0.3 nM; on FGFR2 V564F it was 1 nM; at FGFR2 V564I, 1.5 nM; against FGFR2 N549H it was 0.4 nM; on FGFR2-WT, 3 nM.

In the case of `Cc1c(-c2cc(O[C@H](C)c3ccc(F)cn3)c3c(C#N)cnn3c2)cnn1[C@@H]1CCCC[C@H]1O` [Compound 62, 4-((R)-1-(5-fluoropyridin-2-yl)ethoxy)-6-(1-((1R,2R)-2-hydroxycyclohexyl)-5-methyl-1H-pyrazol-4-yl)pyrazolo[1,5-a]pyridine-3-carbonitrile], the IC50 at FGFR2 (Table 3, read-out: FGFR2 Enz) is 7 nM; at FGFR2 (setting [1]), 8 nM; at FGFR2 V564F, 21.5 nM; against FGFR2 V564I, 30 nM; against FGFR2 N549H, 9 nM; at FGFR2-WT it was 48 nM.

As for `C[C@@H](Oc1cc(-c2ccc(N3CC[C@H](O)[C@@H](O)C3)nc2)cn2ncc(C#N)c12)c1ccc(F)cn1` [Compound 63, 6-(6-((3S,4S)-3,4-dihydroxypiperidin-1-yl)pyridin-3-yl)-4-((R)-1-(5-fluoropyridin-2-yl)ethoxy)pyrazolo[1,5-a]pyridine-3-carbonitrile], the IC50 at FGFR2 (Table 3, read-out: FGFR2 Enz) stood at 0.3 nM; on FGFR2 (setting [1]), 0.3 nM; against FGFR2 V564F, 1 nM; at FGFR2 V564I it was 1 nM; at FGFR2 N549H it was 0.3 nM; against FGFR2-WT it was 3.3 nM.

For the compound `C[C@@H](Oc1cc(-c2ccc(N3CC[C@@H](O)[C@H](O)C3)nc2)cn2ncc(C#N)c12)c1ccc(F)cn1` [Compound 64, 6-(6-((3R,4R)-3,4-dihydroxypiperidin-1-yl)pyridin-3-yl)-4-((R)-1-(5-fluoropyridin-2-yl)ethoxy)pyrazolo[1,5-a]pyridine-3-carbonitrile], the IC50 at FGFR2 (Table 3, read-out: FGFR2 Enz) worked out at 0.3 nM; on FGFR2 V564F, 0.6 nM; on FGFR2 V564I it was 0.7 nM; on FGFR2 N549H it was 0.2 nM; on FGFR2-WT, 4 nM.

Consider `Cc1c(-c2cc(O[C@H](CO)c3ccc(F)cn3)c3c(C#N)cnn3c2)cnn1[C@H]1CC[C@H](O)CC1` [Compound 65, 4-((S)-1-(5-fluoropyridin-2-yl)-2-hydroxyethoxy)-6-(1-((1r,4S)-4-hydroxycyclohexyl)-5-methyl-1H-pyrazol-4-yl)pyrazolo[1,5-a]pyridine-3-carbonitrile], for which the IC50 amounted to 3 nM on FGFR2 (Table 3, read-out: FGFR2 Enz); 3 nM on FGFR2 (setting [1]); 9.5 nM against FGFR2 V564F; 10.6 nM against FGFR2 V564I; 3.5 nM at FGFR2 N549H; 21 nM on FGFR2-WT.

As for `Cc1c(-c2cc(O[C@@H](CO)c3ccc(F)cn3)c3c(C#N)cnn3c2)cnn1[C@H]1CC[C@H](O)CC1` [Compound 66, 4-((R)-1-(5-fluoropyridin-2-yl)-2-hydroxyethoxy)-6-(1-((1r,4R)-4-hydroxycyclohexyl)-5-methyl-1H-pyrazol-4-yl)pyrazolo[1,5-a]pyridine-3-carbonitrile], the IC50 on FGFR2 (Table 3, read-out: FGFR2 Enz) worked out at 105 nM; at FGFR2 (setting [1]), 110 nM; against FGFR2 V564F it was 139 nM; against FGFR2 V564I, 369 nM; at FGFR2 N549H, 106 nM; at FGFR2-WT, 793 nM.
